PubChem BioAssay AID1963981 (Molecular Pharmacology Branch, DTP, NCI, 2024)

tested on: 354836-022-R-J1-PDC multicell spheroid viability; assay: Anticancer human tumor 354836-022-R-J1-PDC patient-derived head and neck squamous cell carcinoma cell line growth inhibition [PI3K]; conditions: second compound 0.0316 µM; first compound 3.16 µM; hits give low values
Summary of the method: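 Combination activity was assessed by viability in multicellular tumor spheroids carrying HUVEC and MSC components. Agents were tested with PI3K inhibitors from a Cmax-based top dose (or 10 microM) downward in half-log increments.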
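Note: spheroids exposed to agents for seven days before the viability read.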

SMILES | viability, T/C [%]
CC(C)NCC(C(=O)N1CCN(c2ncnc3c2C(C)CC3O)CC1)c1ccc(Cl)cc1 (configuration not stated) + COc1c(OCCCN2CCOCC2)ccc2c3n(c(=NC(=O)c4cnc(N)nc4)nc12)CCN3 | 7.83
CC1(C)CCC(Nc2ncc(C(F)(F)F)c(-c3c[nH]c4c(P(C)(C)=O)c(C#N)ccc34)n2)CN1 (configuration not stated) + Cc1nc(NC(=O)N2CCCC2C(N)=O)sc1-c1ccnc(C(C)(C)C(F)(F)F)c1 | 29.1

same assay, conditions: second compound 0.0316 µM; first compound 10 µM; hits give low values

SMILES | viability, T/C [%]
C=CC(=O)N1CCN(c2nc(=O)n(-c3c(C)ccnc3C(C)C)c3nc(-c4c(O)cccc4F)c(F)cc23)C(C)C1 (configuration not stated) + CC(Nc1ncnc2nc[nH]c12)c1cc2cccc(Cl)c2c(=O)n1-c1ccccc1 | 94.1
C#Cc1c(F)ccc2cc(O)cc(-c3ncc4c(N5CC6CCC(C5)N6)nc(OCC56CCCN5CC(F)C6)nc4c3F)c12 (configuration not stated) + CC(Nc1ccc2c(c1)OCCn1cc(N3C(=O)OCC3C(F)F)nc1-2)C(N)=O | 92.9
CC(C)NCC(C(=O)N1CCN(c2ncnc3c2C(C)CC3O)CC1)c1ccc(Cl)cc1 (configuration not stated) + COc1c(OCCCN2CCOCC2)ccc2c3n(c(=NC(=O)c4cnc(N)nc4)nc12)CCN3 | 2.13
CC1(C)CCC(Nc2ncc(C(F)(F)F)c(-c3c[nH]c4c(P(C)(C)=O)c(C#N)ccc34)n2)CN1 (configuration not stated) + Cc1nc(NC(=O)N2CCCC2C(N)=O)sc1-c1ccnc(C(C)(C)C(F)(F)F)c1 | 2.24

same assay, conditions: second compound 0.1 µM; first compound 0.00316 µM; hits give low values

SMILES | viability, T/C [%]
CCN1CCN(Cc2ccc(Nc3ncc(F)c(-c4cc(F)c5nc(C)n(C(C)C)c5c4)n3)nc2)CC1 + CC(Nc1ncnc2nc[nH]c12)c1cc2cccc(Cl)c2c(=O)n1-c1ccccc1 | 106

same assay, conditions: second compound 0.1 µM; first compound 0.01 µM; hits give low values

SMILES | viability, T/C [%]
CCN1CCN(Cc2ccc(Nc3ncc(F)c(-c4cc(F)c5nc(C)n(C(C)C)c5c4)n3)nc2)CC1 + CC(Nc1ncnc2nc[nH]c12)c1cc2cccc(Cl)c2c(=O)n1-c1ccccc1 | 109

same assay, conditions: second compound 0.1 µM; first compound 0.0316 µM; hits give low values

SMILES | viability, T/C [%]
C=CC(=O)N1CCN(c2nc(=O)n(-c3c(C)ccnc3C(C)C)c3nc(-c4c(O)cccc4F)c(F)cc23)C(C)C1 (configuration not stated) + CC(Nc1ncnc2nc[nH]c12)c1cc2cccc(Cl)c2c(=O)n1-c1ccccc1 | 98.7
CCN1CCN(Cc2ccc(Nc3ncc(F)c(-c4cc(F)c5nc(C)n(C(C)C)c5c4)n3)nc2)CC1 + CC(Nc1ncnc2nc[nH]c12)c1cc2cccc(Cl)c2c(=O)n1-c1ccccc1 | 91.7
C#Cc1c(F)ccc2cc(O)cc(-c3ncc4c(N5CC6CCC(C5)N6)nc(OCC56CCCN5CC(F)C6)nc4c3F)c12 (configuration not stated) + CC(Nc1ccc2c(c1)OCCn1cc(N3C(=O)OCC3C(F)F)nc1-2)C(N)=O | 78.7
CC(C)NCC(C(=O)N1CCN(c2ncnc3c2C(C)CC3O)CC1)c1ccc(Cl)cc1 (configuration not stated) + COc1c(OCCCN2CCOCC2)ccc2c3n(c(=NC(=O)c4cnc(N)nc4)nc12)CCN3 | 43
CC1(C)CCC(Nc2ncc(C(F)(F)F)c(-c3c[nH]c4c(P(C)(C)=O)c(C#N)ccc34)n2)CN1 (configuration not stated) + Cc1nc(NC(=O)N2CCCC2C(N)=O)sc1-c1ccnc(C(C)(C)C(F)(F)F)c1 | 22.8

same assay, conditions: second compound 0.1 µM; first compound 0.1 µM; hits give low values

SMILES | viability, T/C [%]
C=CC(=O)N1CCN(c2nc(=O)n(-c3c(C)ccnc3C(C)C)c3nc(-c4c(O)cccc4F)c(F)cc23)C(C)C1 (configuration not stated) + CC(Nc1ncnc2nc[nH]c12)c1cc2cccc(Cl)c2c(=O)n1-c1ccccc1 | 94.5
CCN1CCN(Cc2ccc(Nc3ncc(F)c(-c4cc(F)c5nc(C)n(C(C)C)c5c4)n3)nc2)CC1 + CC(Nc1ncnc2nc[nH]c12)c1cc2cccc(Cl)c2c(=O)n1-c1ccccc1 | 103
C#Cc1c(F)ccc2cc(O)cc(-c3ncc4c(N5CC6CCC(C5)N6)nc(OCC56CCCN5CC(F)C6)nc4c3F)c12 (configuration not stated) + CC(Nc1ccc2c(c1)OCCn1cc(N3C(=O)OCC3C(F)F)nc1-2)C(N)=O | 103
CC(C)NCC(C(=O)N1CCN(c2ncnc3c2C(C)CC3O)CC1)c1ccc(Cl)cc1 (configuration not stated) + COc1c(OCCCN2CCOCC2)ccc2c3n(c(=NC(=O)c4cnc(N)nc4)nc12)CCN3 | 39.6
CC1(C)CCC(Nc2ncc(C(F)(F)F)c(-c3c[nH]c4c(P(C)(C)=O)c(C#N)ccc34)n2)CN1 (configuration not stated) + Cc1nc(NC(=O)N2CCCC2C(N)=O)sc1-c1ccnc(C(C)(C)C(F)(F)F)c1 | 21.6

same assay, conditions: second compound 0.1 µM; first compound 0.316 µM; hits give low values

SMILES | viability, T/C [%]
C=CC(=O)N1CCN(c2nc(=O)n(-c3c(C)ccnc3C(C)C)c3nc(-c4c(O)cccc4F)c(F)cc23)C(C)C1 (configuration not stated) + CC(Nc1ncnc2nc[nH]c12)c1cc2cccc(Cl)c2c(=O)n1-c1ccccc1 | 96.4
CCN1CCN(Cc2ccc(Nc3ncc(F)c(-c4cc(F)c5nc(C)n(C(C)C)c5c4)n3)nc2)CC1 + CC(Nc1ncnc2nc[nH]c12)c1cc2cccc(Cl)c2c(=O)n1-c1ccccc1 | 99.5
C#Cc1c(F)ccc2cc(O)cc(-c3ncc4c(N5CC6CCC(C5)N6)nc(OCC56CCCN5CC(F)C6)nc4c3F)c12 (configuration not stated) + CC(Nc1ccc2c(c1)OCCn1cc(N3C(=O)OCC3C(F)F)nc1-2)C(N)=O | 78.1
CC(C)NCC(C(=O)N1CCN(c2ncnc3c2C(C)CC3O)CC1)c1ccc(Cl)cc1 (configuration not stated) + COc1c(OCCCN2CCOCC2)ccc2c3n(c(=NC(=O)c4cnc(N)nc4)nc12)CCN3 | 26.3
CC1(C)CCC(Nc2ncc(C(F)(F)F)c(-c3c[nH]c4c(P(C)(C)=O)c(C#N)ccc34)n2)CN1 (configuration not stated) + Cc1nc(NC(=O)N2CCCC2C(N)=O)sc1-c1ccnc(C(C)(C)C(F)(F)F)c1 | 25.9

same assay, conditions: second compound 0.1 µM; first compound 1 µM; hits give low values

SMILES | viability, T/C [%]
C=CC(=O)N1CCN(c2nc(=O)n(-c3c(C)ccnc3C(C)C)c3nc(-c4c(O)cccc4F)c(F)cc23)C(C)C1 (configuration not stated) + CC(Nc1ncnc2nc[nH]c12)c1cc2cccc(Cl)c2c(=O)n1-c1ccccc1 | 115
CCN1CCN(Cc2ccc(Nc3ncc(F)c(-c4cc(F)c5nc(C)n(C(C)C)c5c4)n3)nc2)CC1 + CC(Nc1ncnc2nc[nH]c12)c1cc2cccc(Cl)c2c(=O)n1-c1ccccc1 | 61.2
C#Cc1c(F)ccc2cc(O)cc(-c3ncc4c(N5CC6CCC(C5)N6)nc(OCC56CCCN5CC(F)C6)nc4c3F)c12 (configuration not stated) + CC(Nc1ccc2c(c1)OCCn1cc(N3C(=O)OCC3C(F)F)nc1-2)C(N)=O | 92.4
CC(C)NCC(C(=O)N1CCN(c2ncnc3c2C(C)CC3O)CC1)c1ccc(Cl)cc1 (configuration not stated) + COc1c(OCCCN2CCOCC2)ccc2c3n(c(=NC(=O)c4cnc(N)nc4)nc12)CCN3 | 13.3
